# Reference: patent US20250221410A1, “SUBSTITUTED 2-C-AZINES AND SALTS THEREOF, AND USE THEREOF AS HERBICIDAL ACTIVE SUBSTANCES” (BAYER AKTIENGESELLSCHAFT, priority 2022, published 2025)
# Legend:
# Assay type in all cases: in vivo
# [1] = system: ABUTH: Abutilon theophrasti; test: Post-emergence herbicidal efficacy at 1280 g/ha, ABUTH; settings: rated visually after about 3 weeks vs untreated controls, 100% = plants have died, 0% = like control plants
# Summary of the method: (§1)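 Read-out is visual percent activity relative to untreated controls (100% = plants died, 0% = no effect), scored about 3 weeks after treatment. Application was post-emergence at the one-leaf stage in the greenhouse, as WP or EC in water with 0.5% additive at 600 L/ha.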
# [2] = system: AMARE: Amaranthus retroflexus; test: Post-emergence herbicidal efficacy at 1280 g/ha, AMARE; settings: rated visually after about 3 weeks vs untreated controls, 100% = plants have died, 0% = like control plants
# Summary of the method: as §1
# [3] = system: ECHCG: Echinochloa crus-galli; test: Post-emergence herbicidal efficacy at 1280 g/ha, ECHCG; settings: rated visually after about 3 weeks vs untreated controls, 100% = plants have died, 0% = like control plants
# Description: (§2) Seeds of mono- and dicotyledonous weed plants were placed in plastic pots in sandy loam soil (doubly sown with in each case one species of mono- or dicotyledonous weed plants per pot), covered with soil and cultivated in a greenhouse under controlled growth conditions. 2 to 3 weeks after sowing, the test plants were treated at the one-leaf stage. The compounds of the invention, formulated in the form of wettable powders (WP) or as emulsion concentrates (EC), were applied to the green parts of the plants as aqueous suspension or emulsion with addition of 0.5% additive at a water application rate equivalent to 600 litres per hectare. After the test plants had been kept in the greenhouse under optimum growth conditions for about 3 weeks, the activity of the preparations was rated visually in comparison to untreated controls. For example, 100% activity=the plants have died, 0% activity=like control plants. Tables A1 to A12 below show the effects of selected compounds of the general formula (I) according to Table 1 on various harmful plants and at an application rate corresponding to 1280 g/ha, which were obtained by the trial procedure specified above.
# [4] = system: POAAN: Poa annua; test: Post-emergence herbicidal efficacy at 1280 g/ha, POAAN; settings: visual rating about 3 weeks after treatment vs untreated controls
# Summary of the method: as §1
# [5] = system: STEME: Stellaria media; test: Post-emergence herbicidal efficacy at 1280 g/ha, STEME; settings: visual rating about 3 weeks after treatment vs untreated controls
# Summary of the method: as §1
# [6] = system: VERPE: Veronica persica; test: Post-emergence herbicidal efficacy at 1280 g/ha, VERPE; settings: visual rating about 3 weeks after treatment vs untreated controls
# Summary of the method: as §1
# [7] = system: ABUTH: Abutilon theophrasti; test: Pre-emergence herbicide efficacy at 1280 g/ha, ABUTH; settings: visual scoring after about 3 weeks vs untreated controls
# Summary of the method: (§3)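 Pre-emergence pot test in sandy loam: WP or EC formulations sprayed onto covering soil after sowing, as aqueous suspension/emulsion with 0.5% additive at 600 L/ha water. Plants grown in greenhouse; after about 3 weeks, efficacy scored visually as % versus untreated controls (100% = dead, 0% = like control).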
# [8] = system: AMARE: Amaranthus retroflexus; test: Pre-emergence herbicide efficacy at 1280 g/ha, AMARE; settings: visual scoring after about 3 weeks vs untreated controls
# Summary of the method: as §3
# [9] = system: DIGSA: Digitaria sanguinalis; test: Pre-emergence herbicide efficacy at 1280 g/ha, DIGSA; settings: visual scoring after about 3 weeks vs untreated controls
# Summary of the method: as §3
# [10] = system: ECHCG: Echinochloa crus-galli; test: Pre-emergence herbicide efficacy at 1280 g/ha, ECHCG; settings: visual scoring after about 3 weeks vs untreated controls
# Summary of the method: as §3
# [11] = system: KCHSC: Kochia scoparia; test: Pre-emergence herbicide efficacy at 1280 g/ha, KCHSC; settings: visual scoring after about 3 weeks vs untreated controls
# Summary of the method: as §3
# [12] = system: MATIN: Matricaria inodora; test: Pre-emergence herbicide efficacy at 1280 g/ha, MATIN; settings: visual scoring after about 3 weeks vs untreated controls
# Source text: Seeds of mono- and dicotyledonous weed plants were placed in plastic pots in sandy loam soil (doubly sown with one species each of mono- or dicotyledonous weed plants per pot) and covered with soil. The compounds of the invention, formulated in the form of wettable powders (WP) or as emulsion concentrates (EC), were then applied to the surface of the covering soil as aqueous suspension or emulsion with addition of 0.5% additive at a water application rate of 600 litres per hectare (converted). After the treatment, the pots were placed in a greenhouse and kept under good growth conditions for the test plants. After about 3 weeks, the efficacy of the preparations was scored visually in comparison with untreated controls as percentages. For example, 100% activity=the plants have died, 0% activity=like control plants. Tables C1 to C12 below show the effects of selected compounds of the general formula (I) according to Table 1 on various harmful plants and at an application rate corresponding to 1280 g/ha, which were obtained by the trial procedure specified above.
# [13] = system: POAAN: Poa annua; test: Pre-emergence herbicide efficacy at 1280 g/ha, POAAN; settings: visual scoring after about 3 weeks vs untreated controls
# Summary of the method: as §3
# [14] = system: SETVI: Setaria viridis; test: Pre-emergence herbicide efficacy at 1280 g/ha, SETVI; settings: visual scoring vs untreated controls
# Summary of the method: as §3
# [15] = system: STEME: Stellaria media; test: Pre-emergence herbicide efficacy at 1280 g/ha, STEME; settings: visual scoring vs untreated controls
# Summary of the method: as §3
# [16] = system: VERPE: Veronica persica; test: Pre-emergence herbicide efficacy at 1280 g/ha, VERPE; settings: visual scoring vs untreated controls
# Summary of the method: as §3
# [17] = system: DIGSA: Digitaria sanguinalis; test: Post-emergence herbicidal efficacy at 1280 g/ha, DIGSA; settings: rated visually after about 3 weeks vs untreated controls, 100% = plants have died, 0% = like control plants
# Description: as §2
# [18] = system: KCHSC: Kochia scoparia; test: Post-emergence herbicidal efficacy at 1280 g/ha, KCHSC; settings: visual rating about 3 weeks after treatment vs untreated controls
# Summary of the method: as §1
# [19] = system: SETVI: Setaria viridis; test: Post-emergence herbicidal efficacy at 1280 g/ha, SETVI; settings: visual rating about 3 weeks after treatment vs untreated controls
# Summary of the method: as §1
Structure (SMILES),Post-emergence efficacy at 1280 g/ha against ABUTH in % [1] [%],Post-emergence efficacy at 1280 g/ha against AMARE in % [2] [%],Post-emergence efficacy at 1280 g/ha against ECHCG in % [3] [%],Post-emergence efficacy against POAAN [4] [%],Post-emergence efficacy against STEME [5] [%],Post-emergence efficacy against VERPE [6] [%],Pre-emergence efficacy against ABUTH [7] [%],Pre-emergence efficacy against AMARE [8] [%],Pre-emergence efficacy against DIGSA [9] [%],Pre-emergence efficacy against ECHCG [10] [%],Pre-emergence efficacy against KCHSC [11] [%],Pre-emergence efficacy against MATIN [12] [%],Pre-emergence efficacy against POAAN [13] [%],Pre-emergence efficacy against SETVI in % [14] [%],Pre-emergence efficacy against STEME in % [15] [%],Pre-emergence efficacy against VERPE in % [16] [%],Post-emergence efficacy at 1280 g/ha against DIGSA in % [17] [%],Post-emergence efficacy against KCHSC [18] [%],Post-emergence efficacy against SETVI [19] [%]
FC(F)(F)c1cnn(-c2ccccc2Cc2ncc(Cl)cn2)c1 [Example 1-42],90,100,90,90,90,90,100,100,100,90,100,90,90,100,100,90,,,
Clc1ccc(Cc2ccccc2Oc2ncc(Cl)cn2)nc1 [Example 1-91],100,100,,100,100,100,100,100,100,90,100,100,100,100,100,100,90,100,90
Fc1ccc(Cc2ccccc2Oc2ncc(Cl)cn2)nc1 [Example 1-92],90,100,,100,100,100,100,100,100,100,100,100,100,100,100,100,90,100,100
Fc1cnc(Oc2ccccc2Cc2ccc(Cl)cn2)nc1 [Example 1-100],90,100,,100,90,100,100,100,100,100,100,100,100,100,100,100,,100,90
Fc1cnc(Cc2ccccc2-n2cc(C(F)(F)F)cn2)nc1 [Example 1-129],100,100,,100,100,90,100,100,90,100,90,100,90,90,100,90,,100,
